Measured values taken from the supplement of paper PMC8617591.

How the values were obtained:
[1] = tested on: Mycobacterium tuberculosis Erdman (autoluminescent); assay: total FIC50 (Loewe) at 50% inhibition, three-drug combination (log2); higher = more antagonistic
Procedure: (§1)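 DiaMOND equipotent three-drug combination dose responses (10 doses, 1.5- or 2-fold spacing, centred on IC90) against autoluminescent M. tuberculosis Erdman in 8 in vitro models. Read-out is OD600, or luminescence for the intracellular and dormancy models, normalised to untreated wells. Hill-fit Einf, AUC25 and GRinf are potency metrics; FIC50 and FIC90 are total Loewe fractional inhibitory concentrations as log2 (negative = synergy).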

[2] = tested on: Mycobacterium tuberculosis Erdman (autoluminescent); assay: total FIC90 (Loewe) at 90% inhibition, three-drug combination (log2); higher = more antagonistic
Procedure: as §1

[3] = tested on: Mycobacterium tuberculosis Erdman (autoluminescent); assay: Einf, fitted maximum growth inhibition of three-drug combination (fraction); higher = stronger maximal inhibition
Procedure: as §1

[4] = tested on: Mycobacterium tuberculosis Erdman (autoluminescent); assay: AUC25, normalised area under dose response up to IC25 (three-drug combination) (fraction (0-1)); higher = more potent at low dose
Procedure: as §1

[5] = tested on: Mycobacterium tuberculosis Erdman (autoluminescent); assay: GRinf, maximum normalised growth rate inhibition (three-drug combination) (unitless (-1 to 1)); higher = less effect (negative = killing)
Procedure: as §1

COc1nc2ccc(Br)cc2cc1[C@@H](c1ccccc1)[C@@](O)(CCN(C)C)c1cccc2ccccc12 [bedaquiline] + NNC(=O)c1ccncc1 [isoniazid] + CO[C@H]1/C=C/O[C@@]2(C)Oc3c(C)c(O)c4c(O)c(c(/C=N/N5CCN(C6CCCC6)CC5)c(O)c4c3C2=O)NC(=O)/C(C)=C\C=C\[C@H](C)[C@H](O)[C@@H](C)[C@@H](O)[C@@H](C)[C@H](OC(C)=O)[C@@H]1C [rifapentine]
Details	AUC25, [4]	Einf, [3]	GRinf, [5]	total FIC50, [1]	total FIC90, [2]
in vitro model: acidic pH 5.7, time point: constant (~7 days, model-specific)	0.0986	0.958	-0.468	0.854	–
in vitro model: acidic pH 5.7, time point: terminal (~4-5 doublings, model-specific)	0.0903	0.998	-0.375	0.671	0.815
in vitro model: intracellular J774, time point: constant = terminal	–	0.92	-0.0955	–	0.118

Details	AUC25, [4]	Einf, [3]	GRinf, [5]	total FIC50, [1]	total FIC90, [2]
in vitro model: butyrate, time point: constant (~7 days, model-specific)	0.0748	0.93	-0.0408	0.749	-0.0255
in vitro model: butyrate, time point: terminal (~4-5 doublings, model-specific)	0.0596	0.969	-0.0505	0.65	0.51
in vitro model: cholesterol 0.05 mM, time point: constant (~7 days, model-specific)	0.0859	0.689	-0.113	0.606	–
in vitro model: cholesterol 0.05 mM, time point: terminal (~4-5 doublings, model-specific)	0.0803	0.905	-0.101	0.573	0.195
in vitro model: cholesterol-high 0.2 mM, time point: constant (~7 days, model-specific)	0.0656	0.954	-0.564	0.787	–
in vitro model: cholesterol-high 0.2 mM, time point: terminal (~4-5 doublings, model-specific)	0.06	1	-0.621	0.962	0.847
in vitro model: dormancy (butyrate + nitrate, low O2), time point: constant (~7 days, model-specific)	0.0684	0.89	0.303	0.628	0.878
in vitro model: dormancy (butyrate + nitrate, low O2), time point: terminal (~4-5 doublings, model-specific)	0.0424	0.986	-0.0574	0.557	0.296
in vitro model: standard 7H9 glycerol, time point: constant = terminal	0.0599	0.942	-0.00945	0.229	-0.235
in vitro model: valerate, time point: constant (~7 days, model-specific)	0.0499	0.906	-0.146	0.867	–
in vitro model: valerate, time point: terminal (~4-5 doublings, model-specific)	0.0394	0.958	-0.122	1.05	1

COc1nc2ccc(Br)cc2cc1[C@@H](c1ccccc1)[C@@](O)(CCN(C)C)c1cccc2ccccc12 [bedaquiline] + NNC(=O)c1ccncc1 [isoniazid] + CO[C@H]1/C=C/O[C@@]2(C)Oc3c(C)c(O)c4c(O)c(c(/C=N/N5CCN(C)CC5)c(O)c4c3C2=O)NC(=O)/C(C)=C\C=C\[C@H](C)[C@H](O)[C@@H](C)[C@@H](O)[C@@H](C)[C@H](OC(C)=O)[C@@H]1C [rifampicin]
Details	AUC25, [4]	Einf, [3]	GRinf, [5]	total FIC50, [1]	total FIC90, [2]
in vitro model: acidic pH 5.7, time point: constant (~7 days, model-specific)	0.108	0.955	-0.45	0.796	–
in vitro model: acidic pH 5.7, time point: terminal (~4-5 doublings, model-specific)	0.089	0.99	-0.282	0.663	0.706
in vitro model: intracellular J774, time point: constant = terminal	–	0.965	-0.25	–	0.354

Details	AUC25, [4]	Einf, [3]	GRinf, [5]	total FIC50, [1]	total FIC90, [2]
in vitro model: butyrate, time point: constant (~7 days, model-specific)	0.102	0.946	-0.0859	0.575	0.602
in vitro model: butyrate, time point: terminal (~4-5 doublings, model-specific)	0.0879	0.977	-0.052	0.331	0.56
in vitro model: cholesterol 0.05 mM, time point: constant (~7 days, model-specific)	0.0808	0.689	-0.157	-0.117	–
in vitro model: cholesterol 0.05 mM, time point: terminal (~4-5 doublings, model-specific)	0.0785	0.918	-0.164	0.536	-0.254
in vitro model: cholesterol-high 0.2 mM, time point: constant (~7 days, model-specific)	0.0768	0.978	-0.43	0.606	–
in vitro model: cholesterol-high 0.2 mM, time point: terminal (~4-5 doublings, model-specific)	0.0551	0.998	-0.606	0.868	0.598
in vitro model: dormancy (butyrate + nitrate, low O2), time point: constant (~7 days, model-specific)	0.0706	0.908	0.222	0.635	0.621
in vitro model: dormancy (butyrate + nitrate, low O2), time point: terminal (~4-5 doublings, model-specific)	0.0374	0.987	-0.16	0.347	0.0703
in vitro model: standard 7H9 glycerol, time point: constant = terminal	0.0722	0.939	-0.0733	0.27	0.0151
in vitro model: valerate, time point: constant (~7 days, model-specific)	0.0578	0.912	-0.0907	1.13	–
in vitro model: valerate, time point: terminal (~4-5 doublings, model-specific)	0.0274	0.963	-0.0942	1.33	1.01

COc1nc2ccc(Br)cc2cc1[C@@H](c1ccccc1)[C@@](O)(CCN(C)C)c1cccc2ccccc12 [bedaquiline] + NNC(=O)c1ccncc1 [isoniazid] + COc1c(N2C[C@@H]3CCCN[C@@H]3C2)c(F)cc2c(=O)c(C(=O)O)cn(C3CC3)c12 [moxifloxacin]
Details	AUC25, [4]	Einf, [3]	GRinf, [5]	total FIC50, [1]	total FIC90, [2]
in vitro model: acidic pH 5.7, time point: constant (~7 days, model-specific)	0.098	0.7	-0.325	0.527	–
in vitro model: acidic pH 5.7, time point: terminal (~4-5 doublings, model-specific)	0.0943	0.958	-0.313	0.604	0.776
in vitro model: intracellular J774, time point: constant = terminal	–	0.972	-0.784	–	1.2

Details	AUC25, [4]	Einf, [3]	GRinf, [5]	total FIC50, [1]	total FIC90, [2]
in vitro model: butyrate, time point: constant (~7 days, model-specific)	0.0762	0.94	-0.0717	0.776	0.906
in vitro model: butyrate, time point: terminal (~4-5 doublings, model-specific)	0.0478	0.973	-0.0805	0.672	0.575
in vitro model: cholesterol 0.05 mM, time point: constant (~7 days, model-specific)	0.0995	0.742	-0.202	0.612	–
in vitro model: cholesterol 0.05 mM, time point: terminal (~4-5 doublings, model-specific)	0.0886	0.923	-0.178	0.549	-0.479
in vitro model: cholesterol-high 0.2 mM, time point: constant (~7 days, model-specific)	0.0861	0.952	-0.436	0.394	0.57
in vitro model: cholesterol-high 0.2 mM, time point: terminal (~4-5 doublings, model-specific)	0.0461	0.991	-0.601	0.581	0.234
in vitro model: dormancy (butyrate + nitrate, low O2), time point: constant (~7 days, model-specific)	0.0686	0.938	0.161	0.895	0.336
in vitro model: dormancy (butyrate + nitrate, low O2), time point: terminal (~4-5 doublings, model-specific)	0.0705	0.997	-0.252	0.646	0.782
in vitro model: standard 7H9 glycerol, time point: constant = terminal	0.0816	0.987	-0.154	0.375	0.614
in vitro model: valerate, time point: constant (~7 days, model-specific)	0.1	0.925	-0.134	0.901	–
in vitro model: valerate, time point: terminal (~4-5 doublings, model-specific)	0.067	0.949	-0.0225	0.672	1.33
